Values joined by “and” are separate entries in the source; they are usually repeats but may differ in a detail not shown here. Equal entries are not always repeated. Toxic doses and inconclusive results are not listed.
System: P388 leukemia ip, CD2F1 mice, survival T/C
Experiment: NCI In Vivo Anticancer Drug Screen. Data for tumor model P388 Leukemia (intraperitoneal) in CD2F1 (CDF1) mice
Details: endpoint: median survival time, higher = longer survival
How it was run: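 Mice carrying the transplanted tumor received test compound or vehicle. Survival was recorded in each group, and the value is the treated-group measurement divided by that of the vehicle-treated control group.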

[1] = dose: 50.0 mg/kg/injection, schedule: Q01DX005 (ip), vehicle: saline with Tween-80
[2] = dose: 100.0 mg/kg/injection, schedule: Q01DX005 (ip), vehicle: saline with Tween-80

For `C[N+](C)(C)CC[N+](C)(C)Cc1cccc2ccccc12`, the T/C (dose: 50.0 mg/kg/injection, schedule: Q01DX009 (ip), vehicle: saline) was 106 % of control and the T/C (dose: 100.0 mg/kg/injection, schedule: Q01DX009 (ip), vehicle: saline) was 107 % of control.

For `COc1cc(C=Nc2cc(Cl)c(O)c(Cl)c2)ccc1N(CCCl)CCCl`, the T/C (dose: 12.0 mg/kg/injection, schedule: Q04DX003 (ip), vehicle: saline) was 204 % of control, the T/C (dose: 17.0 mg/kg/injection, schedule: Q04DX003 (ip), vehicle: saline) was 263 % of control and the T/C (dose: 25.0 mg/kg/injection, schedule: Q04DX003 (ip), vehicle: saline) was 100 % of control.

For `CC(C)(C)/[N+]([O-])=C/C=C(/C=[N+](\[O-])C(C)(C)C)S(=O)(=O)c1ccccc1`, the T/C (dose: 60.0 mg/kg/injection, schedule: Q01DX005 (ip), vehicle: saline with Tween-80) was 96 % of control, the T/C (dose: 120.0 mg/kg/injection, schedule: Q01DX005 (ip), vehicle: saline with Tween-80) was 90 % of control and the T/C (dose: 240.0 mg/kg/injection, schedule: Q01DX005 (ip), vehicle: saline with Tween-80) was 90 % of control.

With `CC1=CC(=C2C(=O)c3ccccc3C2=O)N(CCN2CCCCC2)C=C1` the T/C (dose: 50.0 mg/kg/injection, schedule: Q01DX005 (ip), vehicle: Klucel (hydroxypropylcellulose) (HPC)) was 93 % of control, the T/C (dose: 100.0 mg/kg/injection, schedule: Q01DX005 (ip), vehicle: Klucel (hydroxypropylcellulose) (HPC)) was 102 % of control and the T/C (dose: 200.0 mg/kg/injection, schedule: Q01DX005 (ip), vehicle: Klucel (hydroxypropylcellulose) (HPC)) was 93 % of control.

In the case of `CC(C)c1cc(C=C2C(=O)c3ccccc3C2=O)cc(C(C)C)c1O`, the T/C (dose: 100.0 mg/kg/injection, schedule: Q04DX002 (ip), vehicle: saline) is reported as 100 % of control, the T/C (dose: 200.0 mg/kg/injection, schedule: Q04DX002 (ip), vehicle: saline) is reported as 100 % of control and the T/C (dose: 400.0 mg/kg/injection, schedule: Q04DX002 (ip), vehicle: saline) is reported as 97 % of control.

For `Cc1ccc2c(NCCCCCCCCNc3c4ccccc4nc4c(C)c(C)ccc34)c3ccccc3nc2c1C`, the T/C (dose: 10.0 mg/kg/injection, schedule: Q01DX009 (ip), vehicle: other) was 156 % of control.

`COc1cc(OC)c2ccc(=O)oc2c1/C=C\C1(C)CCC(C)=CC1c1c(OC)cc(OC)c2ccc(=O)oc12` (stereo not drawn) was tested, and the T/C (dose: 2.5 mg/kg/injection, schedule: Q01DX005 (ip), vehicle: Klucel (hydroxypropylcellulose) (HPC)) was 96 % of control, the T/C (dose: 5.0 mg/kg/injection, schedule: Q01DX005 (ip), vehicle: Klucel (hydroxypropylcellulose) (HPC)) was 105 % of control and the T/C (dose: 10.0 mg/kg/injection, schedule: Q01DX005 (ip), vehicle: Klucel (hydroxypropylcellulose) (HPC)) was 117 % of control. For the same compound, the T/C (dose: 20.0 mg/kg/injection, schedule: Q01DX005 (ip), vehicle: Klucel (hydroxypropylcellulose) (HPC)) was 96 % of control and the T/C (dose: 40.0 mg/kg/injection, schedule: Q01DX005 (ip), vehicle: Klucel (hydroxypropylcellulose) (HPC)) was 86 % of control.

`CC1CCCC(NC(=O)N(CCCl)N=O)C1` (stereo not drawn) was tested, and the T/C (dose: 4.0 mg/kg/injection, schedule: Q04DX003 (ip), vehicle: saline with Tween-80) was 118 % of control, the T/C (dose: 6.25 mg/kg/injection, schedule: Q01DX009 (ip), vehicle: saline with Tween-80) was 175 % of control and the T/C (dose: 12.5 mg/kg/injection, schedule: Q01DX009 (ip), vehicle: saline with Tween-80) was 225 % of control. The T/C (dose: 16.0 mg/kg/injection, schedule: Q04DX003 (ip), vehicle: saline with Tween-80) was 177 % of control, the T/C (dose: 25.0 mg/kg/injection, schedule: Q01DX009 (ip), vehicle: saline with Tween-80) was 272 % of control and 295 % of control and the T/C (dose: 25.0 mg/kg/injection, schedule: Q04DX003 (ip), vehicle: saline with Tween-80) was 245 % of control. For the same compound, the T/C (dose: 50.0 mg/kg/injection, schedule: Q04DX003 (ip), vehicle: saline with Tween-80) was 118 % of control.

In the case of `CC1CCC(C(C)C)C(N)C1` (stereo not drawn), the T/C (dose: 25.0 mg/kg/injection, schedule: Q04DX002 (ip), vehicle: suspension in saline) is reported as 100 % of control, the T/C (dose: 50.0 mg/kg/injection, schedule: Q04DX002 (ip), vehicle: suspension in saline) is reported as 93 % of control and the T/C (dose: 100.0 mg/kg/injection, schedule: Q04DX002 (ip), vehicle: saline with Tween-80) is reported as 89 % of control. The T/C (dose: 100.0 mg/kg/injection, schedule: Q04DX002 (ip), vehicle: suspension in saline) was 102 % of control.

`CCOc1ccc2c(c1)n([O-])c1cc(Cl)ccc1[n+]2=O` was tested, and the T/C (dose: 12.5 mg/kg/injection, schedule: Q01DX005 (ip), vehicle: saline with Tween-80) was 111 % of control, the T/C (dose: 25.0 mg/kg/injection, schedule: Q01DX005 (ip), vehicle: saline with Tween-80) was 108 % of control and the T/C [1] was 103 % of control and 115 % of control. For the same compound, the T/C [2] was 107 % of control.

In the case of `CSc1cnn(-c2ccccc2)[n+]1[O-]`, the T/C [1] is reported as 98 % of control, the T/C [2] is reported as 110 % of control and the T/C (dose: 200.0 mg/kg/injection, schedule: Q01DX005 (ip), vehicle: saline with Tween-80) is reported as 94 % of control.
